From patent US10758534B2 (Vertex Pharmaceuticals Incorporated, priority 2014, dated 2020)

Biological target: T1, F508del (Homo sapiens, UniProt P13569, DEL508-508)
T1 construct: expressed in transfected cells
Test: Protocol 1: membrane potential optical assay (FLIPR III, voltage sensing dye), identification of potentiator compounds
Assay type: cell-based
Details: Table 3, compounds of Table 1
Excerpt: Membrane Potential Optical Methods for Assaying F508del Modulation Properties of Compounds
The assay utilizes fluorescent voltage sensing dyes to measure changes in membrane potential using a fluorescent plate reader (e.g., FLIPR III, Molecular Devices, Inc.) as a readout for increase in functional F508del in NIH 3T3 cells. The driving force for the response is the creation of a chloride ion gradient in conjunction with channel activation by a single liquid addition step after the cells have previously been treated with compounds and subsequently loaded with a voltage sensing dye.
Identification of Potentiator Compounds
To identify potentiators of F508del, a double-addition HTS assay format was developed. This HTS assay utilizes fluorescent voltage sensing dyes to measure changes in membrane potential on the FLIPR III as a measurement for increase in gating (conductance) of F508del in temperature-corrected F508del NIH 3T3 cells. The driving force for the response is a Cl^− ion gradient in conjunction with channel activation with forskolin in a single liquid addition step using a fluorescent plate reader such as FLIPR III after the cells have previously been treated with potentiator compounds (or DMSO vehicle control) and subsequently loaded with a redistribution dye.
Bath Solution #1: (in mM) NaCl 160, KCl 4.5, CaCl2 2, MgCl2 1, HEPES 10, pH 7.4 with NaOH.
Chloride-free bath solution: Chloride salts in Bath Solution #1 (above) are substituted with gluconate salts.
NIH3T3 mouse fibroblasts stably expressing F508del are used for optical measurements of membrane potential. The cells are maintained at 37° C. in 5% CO2 and 90% humidity in Dulbecco's modified Eagle's medium supplemented with 2 mM glutamine, 10% fetal bovine serum, 1×NEAA, β-ME, 1× pen/strep, and 25 mM HEPES in 175 cm^2 culture flasks. For all optical assays, the cells were seeded at ˜20,000/well in 384-well matrigel-coated plates and cultured for 2 hrs at 37° C. before culturing at 27° C. for 24 hrs. for the potentiator assay. For the correction assays, the cells are cultured at 27° C. or 37° C. with and without compounds for 16-24 hours.

T1 sequence (P13569 with tags, fused parts or gaps DEL508-508): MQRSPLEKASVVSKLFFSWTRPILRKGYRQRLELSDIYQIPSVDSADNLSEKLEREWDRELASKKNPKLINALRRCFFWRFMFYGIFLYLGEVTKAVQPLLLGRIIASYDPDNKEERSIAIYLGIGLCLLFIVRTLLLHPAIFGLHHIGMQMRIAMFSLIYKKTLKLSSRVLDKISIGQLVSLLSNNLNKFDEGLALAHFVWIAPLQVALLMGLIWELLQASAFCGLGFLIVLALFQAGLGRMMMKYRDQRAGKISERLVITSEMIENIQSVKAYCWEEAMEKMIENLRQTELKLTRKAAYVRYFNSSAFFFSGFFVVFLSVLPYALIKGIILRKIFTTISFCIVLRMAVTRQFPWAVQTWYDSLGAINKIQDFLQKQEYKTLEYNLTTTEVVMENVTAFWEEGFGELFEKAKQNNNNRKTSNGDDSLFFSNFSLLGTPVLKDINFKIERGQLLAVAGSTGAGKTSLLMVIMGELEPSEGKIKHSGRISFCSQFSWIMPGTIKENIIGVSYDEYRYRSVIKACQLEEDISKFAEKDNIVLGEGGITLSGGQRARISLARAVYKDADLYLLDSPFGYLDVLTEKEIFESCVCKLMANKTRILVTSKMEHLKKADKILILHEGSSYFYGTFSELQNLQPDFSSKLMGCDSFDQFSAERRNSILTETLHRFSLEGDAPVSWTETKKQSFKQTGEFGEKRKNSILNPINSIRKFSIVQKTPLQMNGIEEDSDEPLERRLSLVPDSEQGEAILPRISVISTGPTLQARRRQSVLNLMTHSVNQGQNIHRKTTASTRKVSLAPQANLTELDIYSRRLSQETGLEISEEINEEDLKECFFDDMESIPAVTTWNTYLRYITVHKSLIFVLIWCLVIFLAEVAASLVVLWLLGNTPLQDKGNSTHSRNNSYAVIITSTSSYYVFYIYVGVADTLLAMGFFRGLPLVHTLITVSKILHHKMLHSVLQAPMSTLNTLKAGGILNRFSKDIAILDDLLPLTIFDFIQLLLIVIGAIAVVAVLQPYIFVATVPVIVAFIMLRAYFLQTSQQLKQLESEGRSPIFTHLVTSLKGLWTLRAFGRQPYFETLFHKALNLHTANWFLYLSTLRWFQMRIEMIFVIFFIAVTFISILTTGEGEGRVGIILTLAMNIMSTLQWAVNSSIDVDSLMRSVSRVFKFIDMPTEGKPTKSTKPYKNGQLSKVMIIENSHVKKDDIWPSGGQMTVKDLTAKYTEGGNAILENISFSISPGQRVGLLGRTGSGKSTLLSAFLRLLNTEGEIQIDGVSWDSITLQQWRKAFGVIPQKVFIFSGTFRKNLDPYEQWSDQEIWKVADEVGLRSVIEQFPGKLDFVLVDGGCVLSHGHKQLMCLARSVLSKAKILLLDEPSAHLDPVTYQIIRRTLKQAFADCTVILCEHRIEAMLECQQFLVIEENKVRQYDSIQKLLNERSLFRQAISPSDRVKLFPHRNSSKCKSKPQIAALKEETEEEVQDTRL

Row | EC30 | Compound
1 | +++ (“+++” means <3 uM) | Cc1cc(C)c(Oc2nc(-c3cc(F)ccc3F)ccc2C(=O)NS(=O)(=O)c2cccc(N)n2)c(C)c1 [Compound 803, N-[(6-amino-2-pyridyl)sulfonyl]-6-(2,5-difluorophenyl)-2-(2,4,6-trimethylphenoxy)pyridine-3-carboxamide]
2 | +++ (“+++” means <3 uM) | C[C@@H]1CC[C@H](C)N1c1nc(-c2ccccc2)ccc1C(=O)NS(=O)(=O)c1cccc(N)n1 [Compound 805, N-[(6-amino-2-pyridyl)sulfonyl]-2-[(2S,5R)-2,5-dimethylpyrrolidin-1-yl]-6-phenyl-pyridine-3-carboxamide]
3 | ++ (“++” means between 3 uM and 10 uM) | COc1ccc(C(=O)NS(=O)(=O)c2cccc(N)n2)c(Oc2c(C)cc(C)cc2C)n1 [Compound 806, N-[(6-amino-2-pyridyl)sulfonyl]-6-methoxy-2-(2,4,6-trimethylphenoxy)pyridine-3-carboxamide]
4 | ++ (“++” means between 3 uM and 10 uM) | Cc1cc(C)c(Oc2nc(-c3cnn(C(C)C)c3)ccc2C(=O)NS(=O)(=O)c2cccc(N)n2)c(C)c1 [Compound 808, N-[(6-amino-2-pyridyl)sulfonyl]-6-(1-isopropylpyrazol-4-yl)-2-(2,4,6-trimethylphenoxy)pyridine-3-carboxamide]
5 | ++ (“++” means between 3 uM and 10 uM) | Cc1ccc(-c2nc(C(C)(C)C)ccc2C(=O)NS(=O)(=O)c2ccc(O)cc2)cc1 [Compound 809, 6-tert-butyl-N-(4-hydroxyphenyl)sulfonyl-2-(p-tolyl)pyridine-3-carboxamide]
6 | ++ (“++” means between 3 uM and 10 uM) | Cc1cc(C)c(Oc2nc(-c3ccc(CN4CCOCC4)cc3)ccc2C(=O)NS(=O)(=O)c2cccc(N)n2)c(C)c1 [Compound 810, N-[(6-amino-2-pyridyl)sulfonyl]-6-[4-(morpholinomethyl)phenyl]-2-(2,4,6-trimethylphenoxy)pyridine-3-carboxamide]
7 | +++ (“+++” means <3 uM) | CC(C)Oc1ccc(-c2ccc(C(=O)NS(=O)(=O)c3cccc(N)n3)c(N3C[C@@H](C)CC3(C)C)n2)cn1 [Compound 811, N-[(6-amino-2-pyridyl)sulfonyl]-6-(6-isopropoxy-3-pyridyl)-2-[(4S)-2,2,4-trimethylpyrrolidin-1-yl]pyridine-3-carboxamide]
8 | ++ (“++” means between 3 uM and 10 uM) | Cc1cc(C)c(Oc2nc(-c3cn(C)nc3C(F)(F)F)ccc2C(=O)NS(=O)(=O)c2cccc(N)n2)c(C)c1 [Compound 812, N-[(6-amino-2-pyridyl)sulfonyl]-6-[1-methyl-3-(trifluoromethyl)pyrazol-4-yl]-2-(2,4,6-trimethylphenoxy)pyridine-3-carboxamide]
9 | +++ (“+++” means <3 uM) | CCOc1ccc(-c2ccc(C(=O)NS(=O)(=O)c3cc[nH]n3)c(Oc3ccc(C)cc3C)n2)cc1 [Compound 813, 2-(2,4-dimethylphenoxy)-6-(4-ethoxyphenyl)-N-(1H-pyrazol-3-ylsulfonyl)pyridine-3-carboxamide]
10 | +++ (“+++” means <3 uM) | Cc1nc(OC(C)C)ccc1-c1ccc(C(=O)NS(=O)(=O)c2cccc(N)n2)c(N2CC(C)CC2(C)C)n1 (stereo not shown) [Compound 814, N-[(6-amino-2-pyridyl)sulfonyl]-6-(6-isopropoxy-2-methyl-3-pyridyl)-2-(2,2,4-trimethylpyrrolidin-1-yl)pyridine-3-carboxamide]
11 | ++ (“++” means between 3 uM and 10 uM) | Cc1cc(C)c(Oc2nc(-c3cc(F)cc(F)c3)ccc2C(=O)NS(=O)(=O)c2ccc[nH]c2=O)c(C)c1 [Compound 815, 6-(3,5-difluorophenyl)-N-[(2-oxo-1H-pyridin-3-yl)sulfonyl]-2-(2,4,6-trimethylphenoxy)pyridine-3-carboxamide]
12 | ++ (“++” means between 3 uM and 10 uM) | CCc1cnc2c(c1)cc(C(=O)NS(=O)(=O)c1cccc(N)n1)n2Cc1c(C)cc(C)cc1C [Compound 816, N-[(6-amino-2-pyridyl)sulfonyl]-5-ethyl-1-[(2,4,6-trimethylphenyl)methyl]pyrrolo[2,3-b]pyridine-2-carboxamide]
13 | +++ (“+++” means <3 uM) | Cc1cc(C)c(Oc2ncc(-c3ccccc3C)cc2C(=O)NS(=O)(=O)c2cccc(N)n2)c(C)c1 [Compound 817, N-[(6-amino-2-pyridyl)sulfonyl]-5-(o-tolyl)-2-(2,4,6-trimethylphenoxy)pyridine-3-carboxamide]
14 | +++ (“+++” means <3 uM) | CC(C)Oc1ccc(-c2ccc(C(=O)NS(=O)(=O)c3cccc(N)n3)c(N3CCC4(CC3)OCc3ccccc34)n2)cn1 [Compound 818, N-[(6-amino-2-pyridyl)sulfonyl]-6-(6-isopropoxy-3-pyridyl)-2-spiro[1H-isobenzofuran-3,4′-piperidine]-1′-yl-pyridine-3-carboxamide]
15 | + (“+” means greater than 10 uM) | CCOc1ccc(-c2ccc(C(=O)NS(=O)(=O)c3nccnc3N)c(-c3ccc(C)cc3)n2)cc1 [Compound 819, N-(3-aminopyrazin-2-yl)sulfonyl-6-(4-ethoxyphenyl)-2-(p-tolyl)pyridine-3-carboxamide]
16 | + (“+” means greater than 10 uM) | Cc1ccc(-c2ccc(C(=O)NS(=O)(=O)c3nccnc3N)c(-c3ccc(C)cc3)n2)cc1 [Compound 820, N-(3-aminopyrazin-2-yl)sulfonyl-2,6-bis(p-tolyl)pyridine-3-carboxamide]
17 | ++ (“++” means between 3 uM and 10 uM) | CNc1cc(S(=O)(=O)NC(=O)c2cc(C(C)(C)C)nn2Cc2c(C)cccc2C)ccn1 [Compound 821, 5-tert-butyl-2-[(2,6-dimethylphenyl)methyl]-N-[[12-(methylamino)-4-pyridyl]sulfonyl]pyrazole-3-carboxamide]
18 | +++ (“+++” means <3 uM) | Cc1cc(F)ccc1-c1ccc(C(=O)NS(=O)(=O)c2cccc(N)n2)c(N2CC(C)CC2(C)C)n1 (stereo not shown) [Compound 822, N-[(6-amino-2-pyridyl)sulfonyl]-6-(4-fluoro-2-methyl-phenyl)-2-(2,2,4-trimethylpyrrolidin-1-yl)pyridine-3-carboxamide]
19 | + (“+” means greater than 10 uM) | CCc1cccc(S(=O)(=O)NC(=O)c2cc(C(C)(C)C)nn2Cc2c(C)cc(C)cc2C)c1 [Compound 823, 5-tert-butyl-N-(3-ethylphenyl)sulfonyl-2-[(2,4,6-trimethylphenyl)methyl]pyrazole-3-carboxamide]

Row | Compound | EC30
20 | Cc1cc(C)c(Oc2nc(-c3cccc(OCC(C)C)c3F)ccc2C(=O)NS(=O)(=O)c2ccc[nH]c2=O)c(C)c1 [Compound 804, 6-(2-fluoro-3-isobutoxy-phenyl)-N-[(2-oxo-1H-pyridin-3-yl)sulfonyl]-2-(2,4,6-trimethylphenoxy)pyridine-3-carboxamide] | +++ (“+++” means <3 uM)
21 | CC(C)COc1ccc(F)c(-c2ccc(C(=O)NS(=O)(=O)c3cccc(N)n3)c(N3[C@H](C)CC[C@@H]3C)n2)c1 [Compound 807, N-[(6-amino-2-pyridyl)sulfonyl]-2-[(2S,5R)-2,5-dimethylpyrrolidin-1-yl]-6-(2-fluoro-5-isobutoxy-phenyl)pyridine-3-carboxamide] | +++ (“+++” means <3 uM)
22 | CC(C)COc1cc(F)cc(-c2ccc(C(=O)NS(=O)(=O)c3cccc(N)n3)c(OCC3(C)COC3)n2)c1 [Compound 824, N-[(6-amino-2-pyridyl)sulfonyl]-6-(3-fluoro-5-isobutoxy-phenyl)-2-[(3-methyloxetan-3-yl)methoxy]pyridine-3-carboxamide] | ++ (“++” means between 3 uM and 10 uM)
